Data: PubChem BioAssay AID248 (DTP/NCI, 2004)
Where “and” joins values, the source holds several entries; their conditions need not be identical. Equal values may be shown once. Inconclusive results and toxic doses are left out. No stated cut-off is given here; in the data, active means T/C of 150% or more; inactive means T/C below 125%.

System: L1210 leukemia ip in BDF1 mice, survival T/C
Test: NCI In Vivo Anticancer Drug Screen. Data for tumor model L1210 Leukemia (intraperitoneal) in B6D2F1 (BDF1) mice
Conditions: endpoint: mean survival time, higher = longer survival
Outline: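 Value reflects the ratio of survival in compound-treated mice to survival in vehicle-treated controls, with both groups carrying the same transplanted tumor.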

[1] = dose: 100.0 mg/kg/injection, schedule: Q01DX001 (ip), vehicle: Klucel (hydroxypropylcellulose) (HPC)
[2] = dose: 200.0 mg/kg/injection, schedule: Q01DX001 (ip), vehicle: Klucel (hydroxypropylcellulose) (HPC)
[3] = dose: 100.0 mg/kg/injection, schedule: Q01DX009 (ip), vehicle: saline with Tween-80
[4] = dose: 100.0 mg/kg/injection, schedule: Q04DX003 (ip), vehicle: saline with Tween-80
[5] = dose: 200.0 mg/kg/injection, schedule: Q01DX009 (ip), vehicle: saline with Tween-80
[6] = dose: 200.0 mg/kg/injection, schedule: Q04DX003 (ip), vehicle: saline with Tween-80
[7] = dose: 400.0 mg/kg/injection, schedule: Q01DX009 (ip), vehicle: saline with Tween-80
[8] = dose: 400.0 mg/kg/injection, schedule: Q04DX003 (ip), vehicle: saline with Tween-80
[9] = dose: 6.25 mg/kg/injection, schedule: Q01DX009 (ip), vehicle: saline
[10] = dose: 12.5 mg/kg/injection, schedule: Q01DX009 (ip), vehicle: saline
[11] = dose: 100.0 mg/kg/injection, schedule: Q01DX001 (ip), vehicle: carboxymethylcellulose (CMC)
[12] = dose: 200.0 mg/kg/injection, schedule: Q01DX001 (ip), vehicle: carboxymethylcellulose (CMC)
[13] = dose: 400.0 mg/kg/injection, schedule: Q01DX001 (ip), vehicle: carboxymethylcellulose (CMC)
[14] = dose: 100.0 mg/kg/injection, schedule: Q01DX009 (ip), vehicle: Klucel (hydroxypropylcellulose) (HPC)
[15] = dose: 200.0 mg/kg/injection, schedule: Q01DX009 (ip), vehicle: Klucel (hydroxypropylcellulose) (HPC)
[16] = dose: 400.0 mg/kg/injection, schedule: Q01DX009 (ip), vehicle: Klucel (hydroxypropylcellulose) (HPC)
[17] = dose: 100.0 mg/kg/injection, schedule: Q04DX003 (ip), vehicle: Klucel (hydroxypropylcellulose) (HPC)

Measured: T/C

Cc1nc2ccccc2c(C)c1-c1c(C)nc2ccccc2c1C
inactive: [1] 98 % of control | dose: 100.0 mg/kg/injection, schedule: Q01DX009 (ip), vehicle: saline 97 % of control | dose: 100.0 mg/kg/injection, schedule: Q04DX003 (ip), vehicle: saline 100 % of control | [2] 108 % of control | dose: 200.0 mg/kg/injection, schedule: Q01DX009 (ip), vehicle: saline 95 % of control | dose: 200.0 mg/kg/injection, schedule: Q04DX003 (ip), vehicle: saline 97 % of control | dose: 400.0 mg/kg/injection, schedule: Q01DX001 (ip), vehicle: Klucel (hydroxypropylcellulose) (HPC) 103 % of control | dose: 400.0 mg/kg/injection, schedule: Q01DX009 (ip), vehicle: saline 94 % of control | dose: 400.0 mg/kg/injection, schedule: Q04DX003 (ip), vehicle: saline 94 % of control

OC(COc1ccc(Cl)cc1)COc1ccc(Cl)cc1
inactive: dose: 100.0 mg/kg/injection, schedule: Q01DX001 (ip), vehicle: saline with Tween-80 95 % of control | [3] 97 % of control | [4] 98 % of control | [5] 98 % of control | [6] 103 % of control | [7] 101 % of control | [8] 95 % of control

CC1CCCCC12C(=O)NC(=S)NC2=O (stereo not drawn)
inactive: dose: 75.0 mg/kg/injection, schedule: Q01DX001 (ip), vehicle: other 112 % of control | dose: 150.0 mg/kg/injection, schedule: Q01DX001 (ip), vehicle: other 98 % of control | dose: 300.0 mg/kg/injection, schedule: Q01DX001 (ip), vehicle: other 101 % of control

CC(=[N-])CC(C)=O.CC(=[N-])CC(C)=O.[Ni+2]
inactive: dose: 3.0 mg/kg/injection, schedule: Q01DX009 (ip), vehicle: Klucel (hydroxypropylcellulose) (HPC) 90 % of control | dose: 3.12 mg/kg/injection, schedule: Q01DX001 (ip), vehicle: Klucel (hydroxypropylcellulose) (HPC) 97 % of control | dose: 3.12 mg/kg/injection, schedule: Q04DX003 (ip), vehicle: Klucel (hydroxypropylcellulose) (HPC) 98 % of control | dose: 3.13 mg/kg/injection, schedule: Q01DX009 (ip), vehicle: Klucel (hydroxypropylcellulose) (HPC) 97 % of control | dose: 6.0 mg/kg/injection, schedule: Q01DX009 (ip), vehicle: Klucel (hydroxypropylcellulose) (HPC) 95 % of control | dose: 6.25 mg/kg/injection, schedule: Q01DX001 (ip), vehicle: Klucel (hydroxypropylcellulose) (HPC) 100 % of control | dose: 6.25 mg/kg/injection, schedule: Q01DX009 (ip), vehicle: Klucel (hydroxypropylcellulose) (HPC) 97 % of control | dose: 6.25 mg/kg/injection, schedule: Q04DX003 (ip), vehicle: Klucel (hydroxypropylcellulose) (HPC) 97 % of control and 106 % of control | dose: 12.0 mg/kg/injection, schedule: Q01DX009 (ip), vehicle: Klucel (hydroxypropylcellulose) (HPC) 96 % of control | dose: 12.5 mg/kg/injection, schedule: Q01DX001 (ip), vehicle: Klucel (hydroxypropylcellulose) (HPC) 105 % of control | dose: 12.5 mg/kg/injection, schedule: Q01DX009 (ip), vehicle: Klucel (hydroxypropylcellulose) (HPC) 98 % of control | dose: 12.5 mg/kg/injection, schedule: Q04DX003 (ip), vehicle: Klucel (hydroxypropylcellulose) (HPC) 102 % of control and 103 % of control | dose: 25.0 mg/kg/injection, schedule: Q01DX001 (ip), vehicle: Klucel (hydroxypropylcellulose) (HPC) 100 % of control

CCOC(=O)c1nnn(-c2cccnc2)c1C
inactive: dose: 100.0 mg/kg/injection, schedule: Q04DX002 (ip), vehicle: saline 99 % of control | dose: 200.0 mg/kg/injection, schedule: Q04DX002 (ip), vehicle: saline 101 % of control | dose: 400.0 mg/kg/injection, schedule: Q04DX002 (ip), vehicle: saline 92 % of control

CCNC(C)(C)C(SSSC(c1ccc(C(F)(F)F)cc1)C(C)(C)NCC)c1ccc(C(F)(F)F)cc1 (stereo not drawn)
inactive: [9] 91 % of control | [10] 96 % of control | dose: 25.0 mg/kg/injection, schedule: Q01DX009 (ip), vehicle: saline 95 % of control

CCOC(=O)NS(=O)(=O)Nc1ccccc1
inactive: [11] 100 % of control | [12] 109 % of control | [13] 95 % of control

C[N+](C)(C)CCOc1ccccc1Cc1ccccc1
inactive: dose: 1.56 mg/kg/injection, schedule: Q01DX003 (ip), vehicle: saline 96 % of control | dose: 3.12 mg/kg/injection, schedule: Q01DX003 (ip), vehicle: saline 100 % of control | dose: 3.12 mg/kg/injection, schedule: Q01DX009 (ip), vehicle: saline 96 % of control and 100 % of control | dose: 6.25 mg/kg/injection, schedule: Q01DX003 (ip), vehicle: saline 96 % of control | [9] 106 % of control | [10] 105 % of control and 89 % of control | dose: 12.5 mg/kg/injection, schedule: Q04DX003 (ip), vehicle: saline 111 % of control

CC(=S)NC(=O)Nc1cccc2ccccc12
inactive: [1] 88 % of control | [2] 91 % of control

O=C1OC(COCC#Cc2ccccc2)CN1c1ccccc1 (stereo not drawn)
inactive: [3] 105 % of control | [4] 95 % of control | [5] 106 % of control | [6] 101 % of control | [7] 103 % of control | [8] 100 % of control

O=C(NCCCl)NC1CCCCCC1
inactive: [14] 101 % of control | [15] 108 % of control | [16] 100 % of control

O=C1OCC/C1=C\c1ccccc1
inactive: [11] 91 % of control | [12] 94 % of control

C/C(=N\[N+](C)(C)C)c1ccc2ccccc2c1
inactive: dose: 25.0 mg/kg/injection, schedule: Q01DX009 (ip), vehicle: Klucel (hydroxypropylcellulose) (HPC) 101 % of control | dose: 25.0 mg/kg/injection, schedule: Q04DX003 (ip), vehicle: Klucel (hydroxypropylcellulose) (HPC) 101 % of control | dose: 50.0 mg/kg/injection, schedule: Q01DX009 (ip), vehicle: Klucel (hydroxypropylcellulose) (HPC) 100 % of control | dose: 50.0 mg/kg/injection, schedule: Q04DX003 (ip), vehicle: Klucel (hydroxypropylcellulose) (HPC) 105 % of control | [14] 90 % of control | [17] 95 % of control and 105 % of control

COC(=O)c1ccc([N+](=O)[O-])c(O)c1
inactive: [14] 96 % of control | [17] 96 % of control | [15] 98 % of control | dose: 200.0 mg/kg/injection, schedule: Q04DX003 (ip), vehicle: Klucel (hydroxypropylcellulose) (HPC) 100 % of control | [16] 88 % of control | dose: 400.0 mg/kg/injection, schedule: Q04DX003 (ip), vehicle: Klucel (hydroxypropylcellulose) (HPC) 102 % of control

CCCCO[Si](C)(C)CCl
inactive: dose: 50.0 mg/kg/injection, schedule: Q01DX001 (ip), vehicle: carboxymethylcellulose (CMC) 101 % of control | [11] 101 % of control | [12] 106 % of control | [13] 97 % of control

Cc1cccc(Nc2n[nH]c(=S)s2)c1
inactive: [14] 93 % of control | [15] 98 % of control | [16] 87 % of control

Cc1cccc(C)c1OC(=O)Nc1cccc(Cl)c1
inactive: dose: 100.0 mg/kg/injection, schedule: Q04DX002 (ip), vehicle: Klucel (hydroxypropylcellulose) (HPC) 114 % of control | dose: 200.0 mg/kg/injection, schedule: Q04DX002 (ip), vehicle: Klucel (hydroxypropylcellulose) (HPC) 105 % of control | dose: 400.0 mg/kg/injection, schedule: Q04DX002 (ip), vehicle: Klucel (hydroxypropylcellulose) (HPC) 105 % of control
